Reference: patent US8952042B2, “FXR (NR1H4) binding and activity modulating compounds” (Phenex Pharmaceuticals AG, priority 2009, dated 2015)

Assays:
[1] = UV photostability, irradiation at 254 nm, 1H NMR; type: physicochemical; details: 70 h UV irradiation at 254 nm
Description: The compounds of interest were dissolved using ethanol and their UV spectrum was analyzed to determine their λmax to establish an irradiation wavelength to be used in the study (see FIG. 2). The best wavelength for testing the UV stability of the —CH═CH— double bond was determined to be 254 nm. Further material of the compounds was then dissolved in deuterated ethanol and the ^1H NMRs (400 MHz) analyzed (T=0). Each sample was then recovered from the NMR tube and subjected to UV irradiation (254 nm) for 4 h, 15 h and 70 h. At the respective timepoints the individual samples were re-analyzed by ^1H NMR and the signal for the —CH═CH— protons evaluated to assess the percent of remaining intact double bond. Other changes in the chemical shift signals were also analyzed for further changes on the overall structure of the molecules.

[2] = tested on: BSEP and SHP gene expression; test: FXR target gene induction in mouse liver (qRT-PCR), high fat diet mice; type: in vivo, C57/bI6 mice; details: HFD mice, estimated 30 mg/kg daily in food, normalized to TBP
Description: C57/bI6 mice (Elevage Janvier, France) at the age of 8 weeks were put on a high fat diet (60% kcal from fat, Sniff, Soest, Germany, Cat. No. E15771-30 (Mod. Surwit)+0.5 cholesterol (Sigma-Aldrich, Germany) added) for 4 weeks. Baseline blood samples were taken after overnight starvation and fasting plasma glucose was determined using a Roche Accucheck device. In parallel L1-heparin plasma was generated for the determination of baseline total triglyceride (TG) and total cholesterol (TC) levels. Animals were maintained on the HFD+0.5% cholesterol diet for 8 weeks and weekly blood samples were taken for the monitoring of plasma TG and TC levels using routine enzymatic analysis kits (WAKO Diagnostics, Neuss, Germany). The test compounds were dissolved in 100% palm fat and then mixed into molten food for an estimated daily uptake of 30 mg/kg based on averaged food consumption in the 4 weeks HFD adaptation period. FIGS. 4 and 5 show the development of TG and TC values.
RNA was isolated using RNAzol RT Reagent (Fermentas) and mRNA levels determined by quantitative reverse-transcription polymerase chain reaction (qRT-PCR) using Absolute QPCR Rox Mix (Invitrogen) and a real-time PCR machine from Applied Biosystems (CA). Primer and probe sequences (5′ to 3′) used were: SHP, Fwd […]; Rev […]; probe 56-FAM/[…] and BSEP, Fwd […]; Rev […]; probe 56-FAM/ATGGCT […]. All samples were run in duplicate. […]

[3] = UV stability, irradiation at 366 nm on a DMSO thin film, LCMS; type: physicochemical; details: 366 nm emission, 250 μM in DMSO thin film, FIG. 3m
Description: A different, more rapid experimental setup was used to investigate a broader set of compounds in comparison to GW4064. The substances were dissolved in reagent grade DMSO (99.5%, Karl Roth) at a concentration of 250 μM. DMSO solution was spread over a silica glass slide to a depth of approximately 2 mm and irradiated using a UV lamp set to 366 nm emission (Benda Instruments, Wiesloch Germany) using an 8 W tube set approximately 2.5 cm from the target materials. The solution was sampled prior to irradiation (T=0 min) and at various intervals thereafter. Stocks and samples were maintained in foil wrapped tubes out of direct light. Samples were injected (2 μL) directly onto a LCMS System for analysis without any further preparation.

Row | behaviour in 1H NMR spectrum after prolonged UV irradiation [1] | photostability compared to GW4064 [3] | Compound | gene expression of BSEP in liver [2] | gene expression of SHP in liver [2]
1 | inert | – | O=C(O)c1cccc(C2CC2c2ccc(OCc3c(-c4c(Cl)cccc4Cl)noc3C3CC3)cc2Cl)c1 (racemic) [Example 4, 3-(2-(2-chloro-4-((5-cyclopropyl-3-(2,6-dichlorophenyl)isoxazol-4-yl)methoxy)phenyl)-cyclopropyl)benzoic acid] | – | –
2 | – | higher photostability | O=C(O)c1ccc(C2CC2c2ccc(OCc3c(-c4c(Cl)cccc4Cl)noc3C3CC3)cc2Cl)cc1 (racemic) [Example 12, 4-(2-(2-chloro-4-((5-cyclopropyl-3-(2,6-dichlorophenyl)isoxazol-4-yl)methoxy)phenyl)cyclopropyl)benzoic acid] | 6 fold | 6 fold
